In the assay the test system is P388 leukemia ip, CD2F1 mice, survival T/C. Description: NCI In Vivo Anticancer Drug Screen. Data for tumor model P388 Leukemia (intraperitoneal) in CD2F1 (CDF1) mice. Conditions: endpoint: median survival time, higher = longer survival. The method, boiled down:
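Mice carrying the transplanted tumor received test compound or vehicle. Survival was recorded in each group, and the value is the treated-group measurement divided by that of the vehicle-treated control group.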

Where [1] appears, read: dose: 120.0 mg/kg/injection, schedule: Q01DX005 (ip), vehicle: saline with Tween-80.
The mark [2] stands for this setting: dose: 200.0 mg/kg/injection, schedule: Q01DX005 (ip), vehicle: saline with Tween-80.
The mark [3] stands for this setting: dose: 6.25 mg/kg/injection, schedule: Q01DX009 (ip), vehicle: Klucel (hydroxypropylcellulose) (HPC).
The mark [4] stands for this setting: dose: 12.5 mg/kg/injection, schedule: Q01DX009 (ip), vehicle: Klucel (hydroxypropylcellulose) (HPC).
Setting [5] is: dose: 100.0 mg/kg/injection, schedule: Q01DX009 (ip), vehicle: Klucel (hydroxypropylcellulose) (HPC).
[6] abbreviates: dose: 200.0 mg/kg/injection, schedule: Q01DX009 (ip), vehicle: Klucel (hydroxypropylcellulose) (HPC).
Where [7] appears, read: dose: 100.0 mg/kg/injection, schedule: Q01DX009 (ip), vehicle: saline with Tween-80.
Setting [8] is: dose: 200.0 mg/kg/injection, schedule: Q01DX009 (ip), vehicle: saline with Tween-80.
Where [9] appears, read: dose: 12.5 mg/kg/injection, schedule: Q01DX009 (ip), vehicle: saline.
Where [10] appears, read: dose: 25.0 mg/kg/injection, schedule: Q01DX009 (ip), vehicle: saline.
Where [11] appears, read: dose: 50.0 mg/kg/injection, schedule: Q01DX009 (ip), vehicle: Klucel (hydroxypropylcellulose) (HPC).

Values joined by “and” are separate entries in the source; they are usually repeats but may differ in a detail not shown here. Equal entries are not always repeated. Toxic doses and inconclusive results are not listed.

Consider `CCN(CC)c1ccc(C(C#N)(c2ccc(N(CC)Cc3cccc(S(=O)(=O)O)c3)cc2)c2ccc(N(CC)Cc3cccc(S(=O)(=O)O)c3)cc2)cc1`, for which the T/C was 98 % of control and 102 % of control (dose: 72.0 mg/kg/injection, schedule: Q01DX001 (ip), vehicle: saline with Tween-80); 99 % of control (dose: 72.0 mg/kg/injection, schedule: Q01DX005 (ip), vehicle: saline with Tween-80); 104 % of control and 92 % of control (dose: 120.0 mg/kg/injection, schedule: Q01DX001 (ip), vehicle: saline with Tween-80); 92 % of control under setting [1]; 90 % of control and 96 % of control (dose: 200.0 mg/kg/injection, schedule: Q01DX001 (ip), vehicle: saline with Tween-80); 98 % of control under setting [2].
As to `O=C(NN=C(c1ccccc1)c1ccccc1)C(Cl)Cl`, the T/C was 99 % of control (dose: 42.0 mg/kg/injection, schedule: Q01DX009 (ip), vehicle: saline with Tween-80); 97 % of control (dose: 84.0 mg/kg/injection, schedule: Q01DX009 (ip), vehicle: saline with Tween-80); 97 % of control (dose: 168.0 mg/kg/injection, schedule: Q01DX009 (ip), vehicle: saline with Tween-80).
`CCOc1ccccc1N=Nc1c(C)nc(N)nc1OCC`: the T/C runs as follows: (dose: 60.0 mg/kg/injection, schedule: Q01DX005 (ip), vehicle: Klucel (hydroxypropylcellulose) (HPC)) 100 % of control; (dose: 120.0 mg/kg/injection, schedule: Q01DX005 (ip), vehicle: Klucel (hydroxypropylcellulose) (HPC)) 110 % of control; (dose: 240.0 mg/kg/injection, schedule: Q01DX005 (ip), vehicle: Klucel (hydroxypropylcellulose) (HPC)) 110 % of control.
As for `N=C(N)c1nn[nH]n1`, the T/C (dose: 12.5 mg/kg/injection, schedule: Q04DX003 (ip), vehicle: Klucel (hydroxypropylcellulose) (HPC)) was 100 % of control; the T/C (dose: 25.0 mg/kg/injection, schedule: Q04DX003 (ip), vehicle: Klucel (hydroxypropylcellulose) (HPC)) is 100 % of control; the T/C (dose: 50.0 mg/kg/injection, schedule: Q04DX003 (ip), vehicle: Klucel (hydroxypropylcellulose) (HPC)) is 97 % of control; the T/C (dose: 100.0 mg/kg/injection, schedule: Q04DX003 (ip), vehicle: Klucel (hydroxypropylcellulose) (HPC)) was 103 % of control; the T/C (dose: 200.0 mg/kg/injection, schedule: Q04DX003 (ip), vehicle: Klucel (hydroxypropylcellulose) (HPC)) is 100 % of control.
As for `O=C1Nc2ccccc2/C1=C/c1ccc(Cl)c(Cl)c1`, the T/C is 96 % of control under setting [3]; 95 % of control under setting [4]; 92 % of control (dose: 25.0 mg/kg/injection, schedule: Q01DX009 (ip), vehicle: Klucel (hydroxypropylcellulose) (HPC)); 86 % of control under setting [5]; 90 % of control under setting [6].
On to `CC1=Nc2ccccc2OC2(C1)C(C1COC(C)(C)O1)OC1OC(C)(C)OC12` (stereo not drawn), for which the T/C reads like this: (dose: 50.0 mg/kg/injection, schedule: Q01DX005 (ip), vehicle: saline with Tween-80) 99 % of control; (dose: 100.0 mg/kg/injection, schedule: Q01DX005 (ip), vehicle: saline with Tween-80) 95 % of control; under setting [2], 104 % of control.
As for `O=C(Nc1ccc(F)cc1)N1c2ccccc2SC12CCCC2`, the T/C is 91 % of control (dose: 50.0 mg/kg/injection, schedule: Q01DX009 (ip), vehicle: saline with Tween-80); 93 % of control under setting [7]; 93 % of control under setting [8].
Consider `OCCC[N+]12CCCN1CCC2`, for which the T/C is 98 % of control (dose: 50.0 mg/kg/injection, schedule: Q01DX009 (ip), vehicle: saline) and 104 % of control (dose: 100.0 mg/kg/injection, schedule: Q01DX009 (ip), vehicle: saline).
For `C/C(=C1/c2ccccc2-c2n[nH]c(C)c21)S(=O)(=O)O`, the T/C under setting [7] was 109 % of control; the T/C under setting [8] was 109 % of control; the T/C (dose: 400.0 mg/kg/injection, schedule: Q01DX009 (ip), vehicle: saline with Tween-80) is 100 % of control.
Turning to `O=C(O)CNOCc1ccccc1`, the T/C is 95 % of control (dose: 12.5 mg/kg/injection, schedule: Q01DX009 (ip), vehicle: other); 102 % of control (dose: 25.0 mg/kg/injection, schedule: Q01DX009 (ip), vehicle: other); 102 % of control (dose: 50.0 mg/kg/injection, schedule: Q01DX009 (ip), vehicle: other); 93 % of control (dose: 100.0 mg/kg/injection, schedule: Q01DX009 (ip), vehicle: other); 89 % of control (dose: 200.0 mg/kg/injection, schedule: Q01DX009 (ip), vehicle: other).
Turning to `[Cl][Sn]([c]1ccccc1)[c]1ccccc1`, the T/C runs as follows: (dose: 1.8 mg/kg/injection, schedule: Q03HX015 (ip), vehicle: saline) 150 % of control; (dose: 2.7 mg/kg/injection, schedule: Q03HX015 (ip), vehicle: saline) 152 % of control; (dose: 3.12 mg/kg/injection, schedule: Q01DX009 (ip), vehicle: saline) 86 % of control; (dose: 4.0 mg/kg/injection, schedule: Q03HX015 (ip), vehicle: saline) 163 % of control; (dose: 5.3 mg/kg/injection, schedule: Q01DX005 (ip), vehicle: saline) 154 % of control; (dose: 12.0 mg/kg/injection, schedule: Q01DX005 (ip), vehicle: saline) 163 % of control. For the same compound, the T/C was 163 % of control under setting [9]; 114 % of control (dose: 12.5 mg/kg/injection, schedule: Q04DX003 (ip), vehicle: saline); 198 % of control under setting [10]; 154 % of control (dose: 100.0 mg/kg/injection, schedule: Q04DX003 (ip), vehicle: saline).
Turning to `COc1cc(OC)cc(C2(C(O)C3OC(C)(C)OC3C)SCCCS2)c1` (stereo not drawn), the T/C (dose: 100.0 mg/kg/injection, schedule: Q01DX001 (ip), vehicle: Klucel (hydroxypropylcellulose) (HPC)) is 103 % of control; the T/C (dose: 200.0 mg/kg/injection, schedule: Q01DX001 (ip), vehicle: Klucel (hydroxypropylcellulose) (HPC)) is 99 % of control; the T/C (dose: 400.0 mg/kg/injection, schedule: Q01DX001 (ip), vehicle: Klucel (hydroxypropylcellulose) (HPC)) is 97 % of control.
As to `CN1CCc2cccc3c2[C@H]1Cc1ccc(O)c(O)c1-3`, the T/C runs as follows: (dose: 50.0 mg/kg/injection, schedule: Q01DX005 (ip), vehicle: Klucel (hydroxypropylcellulose) (HPC)) 95 % of control; (dose: 100.0 mg/kg/injection, schedule: Q01DX005 (ip), vehicle: Klucel (hydroxypropylcellulose) (HPC)) 92 % of control.
With `CCOC(=O)COc1ccc2c(C)cc(=O)oc2c1[N+](=O)[O-]`, the T/C (dose: 60.0 mg/kg/injection, schedule: Q01DX005 (ip), vehicle: saline with Tween-80) is 102 % of control; the T/C under setting [1] was 99 % of control; the T/C (dose: 240.0 mg/kg/injection, schedule: Q01DX005 (ip), vehicle: saline with Tween-80) was 98 % of control.
As for `CC(C)(C)c1cc(C(c2ccccc2)(c2ccccc2)c2ccccc2)cc2c1[O][Sb]([c]1ccccc1)([c]1ccccc1)([c]1ccccc1)[NH]2`, the T/C is 102 % of control under setting [11], 103 % of control under setting [5] and 116 % of control under setting [6].
On to `O=c1oc(-c2ccc(Cl)c([N+](=O)[O-])c2)ns1`, for which the T/C is, setting by setting: under setting [5], 107 % of control; under setting [6], 113 % of control.
`CCOC(=O)N1CCc2[nH]oc(=O)c2CC1`: the T/C reads like this: (dose: 6.25 mg/kg/injection, schedule: Q01DX009 (ip), vehicle: saline) 101 % of control and 107 % of control; under setting [9], 110 % of control and 95 % of control; under setting [10], 99 % of control.
For the compound `CC(C)C(C=O)C(O)(C(F)(F)F)C(F)(F)Cl` (stereo not drawn), the T/C is 100 % of control (dose: 12.5 mg/kg/injection, schedule: Q04DX003 (ip), vehicle: saline with Tween-80); 90 % of control (dose: 25.0 mg/kg/injection, schedule: Q04DX003 (ip), vehicle: saline with Tween-80); 95 % of control (dose: 50.0 mg/kg/injection, schedule: Q04DX003 (ip), vehicle: saline with Tween-80).
For `CN(C)c1c(-c2ccc(Cl)cc2)cc(-c2ccccc2)[nH]c1=O`, the T/C is 101 % of control (dose: 1.56 mg/kg/injection, schedule: Q01DX009 (ip), vehicle: Klucel (hydroxypropylcellulose) (HPC)); 101 % of control (dose: 3.13 mg/kg/injection, schedule: Q01DX009 (ip), vehicle: Klucel (hydroxypropylcellulose) (HPC)); 100 % of control under setting [3]; 99 % of control and 89 % of control under setting [4]; 101 % of control under setting [11]; 106 % of control under setting [5].

For the origin of these results see PubChem BioAssay AID330 (DTP/NCI, 2004).
